Data published in ChEMBL document CHEMBL1201862, “PubChem BioAssay data set” (2004).
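Five compound concentrations were applied to cells in 96-well plates for 48 hours; endpoints were derived by simple linear interpolation of the resulting dose-response curve. GI50: concentration for 50% inhibition of growth.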 The source made the active and inactive calls. No stated cut-off is given here; in the data, active = GI50 up to about 1.1 µM and inactive = higher.

Key:
Experiment in all cases: NCI anticancer screen, dose series, 48 h
DLD-1 = test system: DLD-1
SK-MEL-28 = test system: SK-MEL-28
HOP-92 = test system: HOP-92
NCI-H226 = test system: NCI-H226
HOP-62 = test system: HOP-62
LOX IMVI = test system: LOX IMVI
SK-MEL-2 = test system: SK-MEL-2
SK-MEL-5 = test system: SK-MEL-5
CCRF-CEM = test system: CCRF-CEM
NCI-H460 = test system: NCI-H460
SF-539 = test system: SF-539
KM12 = test system: KM12
COLO 205 = test system: COLO 205
OVCAR-8 = test system: OVCAR-8
OVCAR-5 = test system: OVCAR-5
OVCAR-3 = test system: OVCAR-3
M14 = test system: M14
RXF 393 = test system: RXF 393
SW-620 = test system: SW-620
RPMI-8226 = test system: RPMI-8226
K562 = test system: K562
HCC 2998 = test system: HCC 2998
ACHN = test system: ACHN
TK-10 = test system: TK-10
HCT-15 = test system: HCT-15
HT-29 = test system: HT-29
UACC-62 = test system: UACC-62
KM-20L2 = test system: KM-20L2
LXFL 529 = test system: LXFL 529
UACC-257 = test system: UACC-257
MOLT-4 = test system: MOLT-4
EKVX = test system: EKVX
SN12C = test system: SN12C
SNB-19 = test system: SNB-19
SNB-78 = test system: SNB-78
SF-295 = test system: SF-295
A549 = test system: A549
NCI-H23 = test system: NCI-H23
UO-31 = test system: UO-31
IGROV-1 = test system: IGROV-1
SF-268 = test system: SF-268
HCT-116 = test system: HCT-116
DMS-114 = test system: DMS-114
DMS-273 = test system: DMS-273
HL-60 = test system: HL-60
OVCAR-4 = test system: OVCAR-4

NC(=O)N/C=C1\C(=O)Oc2ccccc2C1=O
GI50 (DLD-1): > 100 µM (inactive)
GI50 (SK-MEL-28): 73.5 µM (inactive)
GI50 (HOP-92): 56.9 µM (inactive)
GI50 (NCI-H226): > 100 µM (inactive)
GI50 (HOP-62): > 100 µM (inactive)
GI50 (LOX IMVI): > 100 µM (inactive)
GI50 (SK-MEL-2): 40 µM (inactive)
GI50 (SK-MEL-5): > 100 µM (inactive)
GI50 (CCRF-CEM): > 100 µM (inactive)
GI50 (NCI-H460): > 100 µM (inactive)
GI50 (SF-539): 85.9 µM (inactive)
GI50 (KM12): > 100 µM (inactive)
GI50 (COLO 205): > 100 µM (inactive)
GI50 (OVCAR-8): > 100 µM (inactive)
GI50 (OVCAR-5): 35.3 µM (inactive)
GI50 (OVCAR-3): 84.7 µM (inactive)
GI50 (M14): 82.8 µM (inactive)
GI50 (RXF 393): 17.4 µM (inactive)
GI50 (SW-620): > 100 µM (inactive)
GI50 (RPMI-8226): > 100 µM (inactive)
GI50 (K562): > 100 µM (inactive)
GI50 (HCC 2998): > 100 µM (inactive)
GI50 (ACHN): 48.2 µM (inactive)
GI50 (TK-10): > 100 µM (inactive)
GI50 (HCT-15): 48.5 µM
GI50 (HT-29): > 100 µM (inactive)
GI50 (UACC-62): 77.8 µM (inactive)
GI50 (KM-20L2): 86.5 µM (inactive)
GI50 (LXFL 529): > 100 µM (inactive)
GI50 (UACC-257): 89.9 µM (inactive)
GI50 (MOLT-4): > 100 µM (inactive)
GI50 (EKVX): > 100 µM (inactive)
GI50 (SN12C): 64.4 µM (inactive)
GI50 (SNB-19): 82.8 µM (inactive)
GI50 (SNB-78): 43.2 µM (inactive)
GI50 (SF-295): 51.8 µM (inactive)
GI50 (A549): 10 µM (inactive)
GI50 (NCI-H23): > 100 µM (inactive)
GI50 (UO-31): 31.9 µM (inactive)
GI50 (IGROV-1): > 100 µM (inactive)
GI50 (SF-268): 95.7 µM (inactive)
GI50 (HCT-116): > 100 µM (inactive)
GI50 (DMS-114): > 100 µM (inactive)
GI50 (DMS-273): > 100 µM (inactive)
GI50 (HL-60): 53.8 µM (inactive)
GI50 (OVCAR-4): > 100 µM (inactive)
